For 28 molecules, IC50 results are on record in patent US12473296B2, “Perk inhibiting compounds” (HiberCell, Inc., priority 2019, dated 2025).

The target in this assay is PERK (Homo sapiens (Human), UniProt Q9NZJ5). As to the kind of experiment: PERK cellular assay (TR-FRET, HEK293-EGFP-eIF2α cells, tunicamycin-induced ER stress). It counts as cell-based. Particulars: tunicamycin 2 hours, read-out: Cellular IC50 (μM) (EIF2a). As for the experimental part:
Stable cell lines were created in HEK293 cells using lentiviral particles harboring an expression vector for GFP-eIF2α. Cells were selected using puromycin and enriched using fluorescence activated cell sorting against GFP. HEK293-EGFP-eIF2α cells were plated at 5000 cells/well in 384-well assay plates and incubated overnight at 37° C., 5% CO2. Inhibitor compounds were added to the wells by Echo acoustic dispensing and incubated for 30 minutes at 37° C., 5% CO2 prior to induction of ER stress by addition of tunicamycin to […] for 2 hours. Cells were lysed and TR-FRET was measured in an EnVision plate reader (PerkinElmer). FRET ratio data was normalized to signal from lysates treated with DMSO vehicle control and plotted as percent inhibition against 10-point; 3-fold dilution series of inhibitors. IC50 values were calculated using 4-parameter logistical fitting in XLFit.
Background: In TR-FRET formats the signal depends on donor and acceptor labels being close together.

Structures are written as SMILES.

PERK, sequence (Q9NZJ5 30-1116): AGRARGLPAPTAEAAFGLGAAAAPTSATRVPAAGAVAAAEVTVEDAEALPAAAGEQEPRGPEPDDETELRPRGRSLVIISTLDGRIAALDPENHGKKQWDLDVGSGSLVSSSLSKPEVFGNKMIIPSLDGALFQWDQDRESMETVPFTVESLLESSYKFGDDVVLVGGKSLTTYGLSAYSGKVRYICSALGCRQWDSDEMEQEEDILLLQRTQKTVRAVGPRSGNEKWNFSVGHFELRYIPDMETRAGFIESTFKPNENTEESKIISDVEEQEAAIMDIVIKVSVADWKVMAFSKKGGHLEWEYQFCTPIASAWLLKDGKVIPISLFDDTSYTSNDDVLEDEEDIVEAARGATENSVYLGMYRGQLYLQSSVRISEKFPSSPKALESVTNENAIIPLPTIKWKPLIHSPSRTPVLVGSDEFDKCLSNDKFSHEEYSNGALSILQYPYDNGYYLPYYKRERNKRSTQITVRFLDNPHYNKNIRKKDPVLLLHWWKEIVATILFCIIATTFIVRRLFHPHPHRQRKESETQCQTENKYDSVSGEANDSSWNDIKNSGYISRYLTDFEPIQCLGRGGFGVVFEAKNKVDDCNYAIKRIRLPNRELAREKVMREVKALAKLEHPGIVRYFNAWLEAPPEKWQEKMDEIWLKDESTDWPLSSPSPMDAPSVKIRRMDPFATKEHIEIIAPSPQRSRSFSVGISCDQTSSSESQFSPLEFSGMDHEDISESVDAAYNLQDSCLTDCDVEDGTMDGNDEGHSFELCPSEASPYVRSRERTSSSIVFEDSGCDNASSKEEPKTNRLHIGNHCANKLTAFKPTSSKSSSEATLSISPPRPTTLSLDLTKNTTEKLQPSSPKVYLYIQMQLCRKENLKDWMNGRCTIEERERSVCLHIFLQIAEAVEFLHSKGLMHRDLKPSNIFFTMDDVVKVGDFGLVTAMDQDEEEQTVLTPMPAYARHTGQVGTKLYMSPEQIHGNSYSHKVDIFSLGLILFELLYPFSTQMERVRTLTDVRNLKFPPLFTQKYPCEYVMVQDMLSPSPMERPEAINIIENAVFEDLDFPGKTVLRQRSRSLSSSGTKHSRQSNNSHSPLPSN

On to `CCc1cc(NC(=O)C(O)c2ccccc2C)ccc1-c1cnc(N)c(C(=O)NC(C)C)c1` (single isomer, unassigned) [Example 104, 2-amino-5-(2-ethyl-4-(2-hydroxy-2-(o-tolyl)acetamido)phenyl)-N-isopropylnicotinamide], for which the IC50 (usually the concentration at which inhibition is half-maximal) lay within 0.051 to 0.1 µM.

`CCc1cc(NC(=O)C(O)c2ccccc2C)ccc1-c1cnc(N)c(C(=O)NC(C)C)c1` (single isomer, unassigned) [Example 105, 2-amino-5-(2-ethyl-4-(2-hydroxy-2-(o-tolyl)acetamido)phenyl)-N-isopropylnicotinamide]: the IC50 lay within 0.501 to 1 µM.

For `Cc1cc(NC(=O)C(O)c2cc(F)cc(F)c2)ccc1-c1cnc(N)c(C(=O)NC2CCOCC2)n1` (single isomer, unassigned) [Example 144, 3-amino-6-(4-(2-(3,5-difluorophenyl)-2-hydroxyacetamido)-2-methylphenyl)-N-(tetrahydro-2H-pyran-4-yl)pyrazine-2-carboxamide], the IC50 fell in the range of 0.501 to 1 µM.

Turning to `Cc1cc(NC(=O)C(O)c2cc(F)cc(F)c2)ccc1-c1cnc(N)c(C(=O)NC2CCOCC2)n1` (single isomer, unassigned) [Example 145, 3-amino-6-(4-(2-(3,5-difluorophenyl)-2-hydroxyacetamido)-2-methylphenyl)-N-(tetrahydro-2H-pyran-4-yl)pyrazine-2-carboxamide], the IC50 was 0.051 to 0.1 µM.

Regarding `COCCNC(=O)c1nc(-c2ccc(NC(=O)C(O)c3cc(F)cc(F)c3)cc2C)cnc1N` (single isomer, unassigned) [Example 147, 3-amino-6-(4-(2-(3,5-difluorophenyl)-2-hydroxyacetamido)-2-methylphenyl)-N-(2-methoxyethyl) pyrazine-2-carboxamide], the IC50 lay in the range of 0.026 to 0.05 µM.

As to `COCCNC(=O)c1nc(-c2ccc(NC(=O)C(O)c3cc(F)cc(F)c3)cc2C)cnc1N` (single isomer, unassigned) [Example 148, 3-amino-6-(4-(2-(3,5-difluorophenyl)-2-hydroxyacetamido)-2-methylphenyl)-N-(2-methoxyethyl) pyrazine-2-carboxamide], the IC50 is 0.501 to 1 µM.

`Cc1cc(NC(=O)C(O)c2cc(F)cc(F)c2)ccc1-c1cnc(N)c(C(=O)NC2CCOCC2)c1` (stereo not shown) [Example 50, 2-amino-5-(4-(2-(3,5-difluorophenyl)-2-hydroxyacetamido)-2-methylphenyl)-N-(tetrahydro-2H-pyran-4-yl)nicotinamide]: the IC50 lay within 0.051 to 0.1 µM.

Take `Cc1cc(NC(=O)C(O)c2cc(F)cc(F)c2)ccc1-c1cnc(N)c(C(=O)NC2CCOCC2)c1` (stereo not shown) [Example 51, 2-amino-5-(4-(2-(3,5-difluorophenyl)-2-hydroxyacetamido)-2-methylphenyl)-N-(tetrahydro-2H-pyran-4-yl)nicotinamide]: the IC50 lay in the range of 0.501 to 1 µM.

In the case of `COCCNC(=O)c1cc(-c2ccc(NC(=O)C(O)c3cc(F)cc(F)c3)cc2C)cnc1N` (stereo not shown) [Example 54, 2-amino-5-(4-(2-(3,5-difluorophenyl)-2-hydroxyacetamido)-2-methylphenyl)-N-(2-methoxyethyl) nicotinamide], the IC50 was in the range of 0.051 to 0.1 µM.

`COCCNC(=O)c1cc(-c2ccc(NC(=O)C(O)c3cc(F)cc(F)c3)cc2C)cnc1N` (stereo not shown) [Example 55, 2-amino-5-(4-(2-(3,5-difluorophenyl)-2-hydroxyacetamido)-2-methylphenyl)-N-(2-methoxyethyl) nicotinamide]: the IC50 lay within 1 to 2 µM.

As to `Cc1cc(NC(=O)C(O)c2ccccc2C)ccc1-c1cnc(N)c(C(=O)NC(C)C)c1` (stereo not shown) [Example 64, 2-amino-5-(4-(2-hydroxy-2-(o-tolyl)acetamido)-2-methylphenyl)-N-isopropylnicotinamide], the IC50 fell in the range of 0.101 to 0.25 µM.

With `Cc1cc(NC(=O)C(O)c2ccccc2C)ccc1-c1cnc(N)c(C(=O)NC(C)C)c1` (stereo not shown) [Example 65, 2-amino-5-(4-(2-hydroxy-2-(o-tolyl)acetamido)-2-methylphenyl)-N-isopropylnicotinamide], the IC50 is 2 to 3 µM.

On to `Cc1cc(NC(=O)C(O)c2cccc(C(F)(F)F)c2)ccc1-c1cnc(N)c(C(=O)NC(C)C)c1` (stereo not shown) [Example 70, 2-amino-5-(4-(2-hydroxy-2-(3-(trifluoromethyl)phenyl)acetamido)-2-methylphenyl)-N-isopropylnicotinamide], for which the IC50 lay in the range of 0.001 to 0.025 µM.

Turning to `Cc1cc(NC(=O)C(O)c2cccc(C(F)(F)F)c2)ccc1-c1cnc(N)c(C(=O)NC(C)C)c1` (stereo not shown) [Example 71, 2-amino-5-(4-(2-hydroxy-2-(3-(trifluoromethyl)phenyl)acetamido)-2-methylphenyl)-N-isopropylnicotinamide], the concentration for half-maximal inhibition (IC50) lay within 0.501 to 1 µM.

On to `Cc1ccccc1C(O)C(=O)Nc1ccc(-c2cnc(N)c(C(=O)NC(C)C)c2)c(Cl)c1` (stereo not shown) [Example 90, 2-amino-5-(2-chloro-4-(2-hydroxy-2-(o-tolyl)acetamido)phenyl)-N-isopropylnicotinamide], for which the IC50 lay in the range of 0.051 to 0.1 µM.

With `Cc1ccccc1C(O)C(=O)Nc1ccc(-c2cnc(N)c(C(=O)NC(C)C)c2)c(Cl)c1` (stereo not shown) [Example 91, 2-amino-5-(2-chloro-4-(2-hydroxy-2-(o-tolyl)acetamido)phenyl)-N-isopropylnicotinamide], the IC50 lay within 0.251 to 0.5 µM.

For `Cc1cccc(C(O)C(=O)Nc2ccc(-c3cnc(N)c(C(=O)NC(C)C)c3)c(Cl)c2)c1` (stereo not shown) [Example 92, 2-amino-5-(2-chloro-4-(2-hydroxy-2-(m-tolyl)acetamido)phenyl)-N-isopropylnicotinamide], the IC50 was 0.001 to 0.025 µM.

In the case of `Cc1cccc(C(O)C(=O)Nc2ccc(-c3cnc(N)c(C(=O)NC(C)C)c3)c(Cl)c2)c1` (stereo not shown) [Example 93, 2-amino-5-(2-chloro-4-(2-hydroxy-2-(m-tolyl)acetamido)phenyl)-N-isopropylnicotinamide], the concentration for half-maximal inhibition (IC50) lay in the range of 0.101 to 0.25 µM.

Consider `Cc1cc(NC(=O)C(O)c2cc(F)cc(F)c2)ccc1-c1cnc(N)c(C(=O)NC2CCC2)n1` (stereo not shown) [Example 140, 3-amino-N-cyclobutyl-6-(4-(2-(3,5-difluorophenyl)-2-hydroxyacetamido)-2-methylphenyl) pyrazine-2-carboxamide], for which the IC50 is 0.026 to 0.05 µM.

With `Cc1cc(NC(=O)C(O)c2cc(F)cc(F)c2)ccc1-c1cnc(N)c(C(=O)NC2CCC2)n1` (stereo not shown) [Example 141, 3-amino-N-cyclobutyl-6-(4-(2-(3,5-difluorophenyl)-2-hydroxyacetamido)-2-methylphenyl) pyrazine-2-carboxamide], the IC50 lay in the range of 0.101 to 0.25 µM.

For the molecule `Cc1cc(NC(=O)C(O)c2cc(F)cc(F)c2)ccc1-c1cnc(N)c(C(=O)NC2COC2)n1` (stereo not shown) [Example 142, 3-amino-6-(4-(2-(3,5-difluorophenyl)-2-hydroxyacetamido)-2-methylphenyl)-N-(oxetan-3-yl)pyrazine-2-carboxamide], the IC50 lay in the range of 1 to 2 µM.

As to `Cc1cc(NC(=O)C(O)c2cc(F)cc(F)c2)ccc1-c1cnc(N)c(C(=O)NC2COC2)n1` (stereo not shown) [Example 143, 3-amino-6-(4-(2-(3,5-difluorophenyl)-2-hydroxyacetamido)-2-methylphenyl)-N-(oxetan-3-yl)pyrazine-2-carboxamide], the IC50 was 0.026 to 0.05 µM.

Consider `CC(C)NC(=O)c1nc(-c2ccc(NC(=O)C(O)c3cc(F)cc(F)c3)cc2Cl)cnc1N` (stereo not shown) [Example 162, 3-amino-6-(2-chloro-4-(2-(3,5-difluorophenyl)-2-hydroxyacetamido)phenyl)-N-isopropylpyrazine-2-carboxamide], for which the IC50 is 0.101 to 0.25 µM.

Turning to `CC(C)NC(=O)c1nc(-c2ccc(NC(=O)C(O)c3cc(F)cc(F)c3)cc2Cl)cnc1N` (stereo not shown) [Example 163, 3-amino-6-(2-chloro-4-(2-(3,5-difluorophenyl)-2-hydroxyacetamido)phenyl)-N-isopropylpyrazine-2-carboxamide], the IC50 was in the range of 0.051 to 0.1 µM.

With `Nc1ncc(-c2ccc(NC(=O)C(O)c3cc(F)cc(F)c3)cc2Cl)nc1C(=O)NC1CC1` (stereo not shown) [Example 166, 3-amino-6-(2-chloro-4-(2-(3,5-difluorophenyl)-2-hydroxyacetamido)phenyl)-N-cyclopropyl-pyrazine-2-carboxamide], the IC50 lay within 0.026 to 0.05 µM.

Consider `Nc1ncc(-c2ccc(NC(=O)C(O)c3cc(F)cc(F)c3)cc2Cl)nc1C(=O)NC1CC1` (stereo not shown) [Example 167], for which the IC50 is 0.101 to 0.25 µM.

Consider `Cc1ccccc1CC(=O)Nc1ccc(-c2cnc(N)c(C(=O)NC(C)C)c2)c(C)c1` [Example 195, 2-amino-N-isopropyl-5-(2-methyl-4-(2-(o-tolyl)acetamido)phenyl)nicotinamide], for which the IC50 fell in the range of 0.251 to 0.5 µM.

Take `Cc1cccc(CC(=O)Nc2ccc(-c3cnc(N)c(C(=O)NC(C)C)c3)c(C)c2)c1` [Example 196, 2-amino-N-isopropyl-5-(2-methyl-4-(2-(m-tolyl)acetamido)phenyl)nicotinamide]: the IC50 was 0.251 to 0.5 µM.
